Reference: ChEMBL document CHEMBL5674860, “Optimized Dual-Glo Assay to identify co-culture-induced drug vulnerabilities in 3D CRC models” (2024)

Tests used:
Format in all cases: functional, Homo sapiens
Set-up in all cases: dose or concentration left out as unconfirmed
[1] = tested on: Colon cancer organoid; experiment: Optimized Dual-Glo assay to identify co-culture induced drug vulnerabilities using donated chemical probes and chemogenomics kinase set in O14 CRC organoid and F14 CAF mono and co-culture. […] Cell viability is reported both mono and co-culture models.
[2] = tested on: Colon cancer organoid; experiment: Optimized Dual-Glo assay to identify co-culture induced drug vulnerabilities using donated chemical probes and chemogenomics kinase set in O06 CRC organoid and F06 CAF mono and co-culture. […] Cell viability is reported both mono and co-culture models.
[3] = tested on: Colon cancer organoid; experiment: Optimized Dual-Glo assay to identify co-culture induced drug vulnerabilities using donated chemical probes and chemogenomics kinase set in O20 CRC organoid and F20 CAF mono and co-culture. […] Cell viability is reported both mono and co-culture models.
[4] = Culture type Co-Culture, Transduced with Lucferase2-P2A-EGFP lentivirus
[5] = Culture type Co-Culture, Transduced with Renilla-dsRed lentivirus
[6] = Culture type Mono-Culture, Transduced with Lucferase2-P2A-EGFP lentivirus
[7] = Culture type Mono-Culture, Transduced with Renilla-dsRed lentivirus

Row | Compound | Cell Viability [1, 4] [%] | Cell Viability [1, 5] [%] | Cell Viability [1, 6] [%] | Cell Viability [1, 7] [%] | Cell Viability [2, 4] [%] | Cell Viability [2, 5] [%] | Cell Viability [2, 6] [%] | Cell Viability [2, 7] [%] | Cell Viability [3, 4] [%] | Cell Viability [3, 5] [%] | Cell Viability [3, 6] [%] | Cell Viability [3, 7] [%]
1 | CCCOc1ccn2c(C(C)=O)cc(-c3cccc(OC)c3)c2c1 | 84.3946 | 120.115 | 124.987 | 98.1469 | 110.241 | 146.669 | 131.845 | 119.651 | 76.4747 | 110.044 | 113.084 | 103.998
2 | CCNC(=O)c1cc2c(N3CCOC[C@@H]3C)ccnc2n1C | 83.5289 | 107.252 | 73.6623 | 93.9449 | 128.018 | 156.16 | 122.983 | 98.196 | 107.341 | 102.95 | 119.318 | 105.417
3 | C[C@H](NC(=O)Nc1cc2[nH]ncc2c(CO)n1)c1ccccn1 [ERKi-NC] | 88.9935 | 102.074 | 55.928 | 92.432 | 88.473 | 87.7291 | 101.937 | 116.172 | 108.541 | 124.126 | 136.018 | 90.7734
4 | NS(=O)(=O)c1cc(NC(=O)C2(c3ccccc3Cl)CC2)ccc1Oc1cccc(Cl)c1 [BAY-207] | 108.195 | 102.868 | 157.597 | 122.925 | 80.0716 | 155.512 | 77.1877 | 150.163 | 177.814 | 111.752 | 143.896 | 130.032
5 | O=C(/C=C/N1C[C@H]2C[C@@H]1CN2c1ccccn1)c1ccccc1O | 76.8483 | 107.425 | 87.3467 | 104.591 | 122.112 | 121.159 | 115.481 | 98.9347 | 98.7098 | 109.392 | 120.989 | 80.1119
6 | Cc1c(Nc2ccc(S(=O)(=O)N3CCN(C)CC3)cc2F)nc2ccc(Nc3cnn(C4CC4)c3)cn2c1=O | 111.5 | 108.059 | 92.684 | 101.792 | 81.8172 | 120.859 | 129.193 | 116.74 | 117.664 | 135.679 | 121.681 | 97.2871
7 | Cc1cc(-n2nc(Cc3cc(F)cc(C(F)(F)F)c3)nc2C)ccc1C(N)=O [TP-024] | 111.425 | 96.0369 | 116.033 | 105.901 | 141.247 | 165.614 | 109.141 | 106.563 | 120.055 | 118.791 | 103.637 | 122.989
8 | C[C@H]1CC(=O)Nc2cc(C(=O)NCCC3CC3)ccc2N1C(=O)N1CC2CC2C1 (stereo partly drawn) | 72.2289 | 101.41 | 80.5063 | 95.2313 | 115.835 | 132.849 | 119.799 | 120.051 | 105.905 | 112.87 | 104.527 | 89.0255
9 | Cc1sc2c(c1C)C(c1ccc(Cl)cc1)=N[C@@H](CC(=O)NCCCCCCCCNC(=O)COc1cccc3c1C(=O)N(C1CCC(=O)NC1=O)C3=O)c1nnc(C)n1-2 (stereo partly drawn) | 2.938 | 15.8723 | 4.49 | 21.4216 | 5.4511 | 19.3995 | 5.5885 | 11.9931 | 2.002 | 74.9854 | 1.636 | 22.3036
10 | CC(=O)Nc1cccc(-n2c(=O)n(C3CC3)c(=O)c3c(Nc4ccc(I)cc4F)n(C)c(=O)c(C)c32)c1 [TRAMETINIB] | 1.363 | 9.093 | 1.0764 | 6.441 | 4.434 | 57.2708 | 3.321 | 25.6485 | 2.051 | 46.1337 | 3.859 | 28.7914
11 | C[C@H]1CCCN1Cc1nc2cc(NC(=O)c3ccc4cnccc4c3)ccc2[nH]1 | 60.7566 | 146.013 | 100.332 | 105.964 | 122.515 | 131.721 | 188.522 | 107.295 | 98.572 | 149.477 | 83.1729 | 94.0651
12 | CC(C)Oc1ccc(-c2c[nH]cc2CN(C)CCN)cc1 | 38.1359 | 167.261 | 29.2667 | 88.3814 | 47.5822 | 178.793 | 30.9197 | 89.9891 | 47.7555 | 252.195 | 49.3092 | 91.7276
13 | CCN(Cc1ccc(Cl)cc1)c1ncc(C(=O)NCCCN2CCCC2=O)c(NC2CCCC2)n1 | 82.1387 | 108.641 | 123.72 | 100.116 | 130.769 | 112.754 | 126.765 | 120.519 | 67.2116 | 104.655 | 126.603 | 126.47
14 | CC(=O)C1=C(C)N(c2cccc(C(F)(F)F)c2)C(=O)N[C@H]1c1ccc(C#N)nc1 [BAY-677] | 86.1981 | 131.912 | 107.006 | 91.8517 | 113.366 | 134.225 | 107.227 | 105.031 | 134.265 | 107.791 | 113.459 | 115.06
15 | Cc1cnc(-c2cc(Cl)ccc2F)cc1-n1c(=O)n(CC(N)=O)c2ccccc21 [Al11] | 93.5042 | 89.0527 | 114.229 | 91.7467 | 79.8154 | 66.9379 | 96.9616 | 102.254 | 99.824 | 109.542 | 113.608 | 109.646
16 | COc1cc(Nc2ccnc3ccc(Br)cc23)cc(OC)c1OC | 114.11 | 94.8334 | 91.9496 | 94.0266 | 12.1878 | 144.697 | 4.043 | 101.861 | 3.207 | 235.19 | 3.534 | 97.9085
17 | c1ccc2oc(-c3csc(C4CCN(Cc5nc6ncccc6[nH]5)CC4)n3)cc2c1 | 119.834 | 111.13 | 91.6979 | 94.4275 | 118.221 | 124.83 | 91.0093 | 102.554 | 55.8408 | 105.216 | 98.8646 | 99.5308
18 | COc1cc(C)c(Sc2cnc(NC(=O)c3ccc(CNC(C)C(C)(C)C)cc3)s2)cc1C(=O)N1CCN(C(C)=O)CC1 (stereo not drawn) | 66.3781 | 81.9892 | 56.9877 | 80.9779 | 97.8632 | 73.4932 | 75.5351 | 54.8582 | 92.0383 | 97.5626 | 38.3034 | 78.8109
19 | Cc1cc(C)cc(C(=O)NOCCCCCC(=O)NO)c1 | 50.8168 | 381.601 | 48.3088 | 262.893 | 13.8956 | 454.718 | 14.9602 | 431.4 | 15.3163 | 402.959 | 16.4949 | 194.272
